Results published in patent US12502361B2, “Method for treating dengue virus infection” (priority 2021, dated 2025).
Read-outs that look alike come from different tables or passages of the source.

How the values were obtained:
[1] = test system: viral dsRNA; assay: dsRNA immunostaining in DENV2-infected BHK-21 cells; format: cell-based, Dengue virus serotype 2; details: BHK-21 cells pretreated 1 h, DENV2 infection 6 h
Experimental: DAPI was used to label nuclear DNA. […] Scale bar: 100 μm.
Cells were washed with ice-cold PBS 3 times and fixed with 4% paraformaldehyde (Sigma-Aldrich) at room temperature for 15 minutes. Then, the cells were washed 3 times with ice-cold PBS and permeabilized with permeabilization buffer (PBS containing 1% Triton X-100) at room temperature for 5 minutes. The cells were then washed 3 times with ice-cold PBS and immunoblocked with blocking buffer (PBS containing 1% BSA and 0.01% Triton X-100) at 4° C. for 30 minutes. Next, the cells were washed 3 times with ice-cold PBS and immunohybridized with mouse anti-dsRNA J2 primary antibody at 4° C. overnight. Subsequently, the cells were washed 3 times with ice-cold PBS and stained with Alexa Fluor 488-conjugated goat anti-mouse antibody (Thermo Fisher Scientific) at room temperature for 15 minutes. The cells were washed 3 times with ice-cold PBS and then visualized with fluorescence or confocal microscopy. DAPI (Sigma-Aldrich) was used for nuclear staining.
Following endocytosis, the viral genome is released into the cytoplasm and undergoes genome replication (Solomon et al., J Infect, 42, 2001, 104-115).

[2] = test system: endosomal acidification; assay: Acridine orange staining of endosomal acidification in DENV-infected BHK-21 cells; format: cell-based, hamster; details: BHK-21 cells pretreated 1 h, DENV infection 2 h
Experimental: Hoechst was used to label nuclear DNA. Scale bar: 100 μm.
Cells were washed with HBSS (Thermo Fisher Scientific) once and then stained with acridine orange agent (Sigma-Aldrich) and Hoechst 33258 (Thermo Fisher Scientific) in an incubator at 37° C. in 5% CO2. After 45 minutes, the cells were washed with HBSS once and rinsed with HBSS. Subsequently, cells were visualized with a fluorescence microscope (EVOS). Hoechst 33258 was used for nuclear staining.
The endosomal acidification step is critical for DENV uncoating to release the viral genome for further replication in the cytoplasm (Solomon et al., J Infect, 42, 2001, 104-115). Therefore, the pH-sensitive dye acridine orange (AO) was used to explore whether propofol affects the early stages of DENV infection accordingly (Kao et al., PLoS Negl Trop Dis, 12, 2018, e0006715).

[3] = test system: luciferase-expressing DENV replicon; details: BHK-21-SGR replicon cells treated with or without propofol
Experimental: Baby hamster kidney (BHK)-21 fibroblasts (ATCC, CCL10) were maintained in Dulbecco's modified Eagle's medium (DMEM; Thermo Fisher Scientific) containing 10% heat-inactivated fetal bovine serum (FBS, Biological Industries) and 1% penicillin-streptomycin (Thermo Fisher Scientific) at 37° C. in 5% CO2. BHK-21 cells harboring a luciferase-expressing DENV replicon (BHK-D2-Fluc-SGR-Neo-1) were maintained in DMEM with 10% heat-inactivated FBS, 1% penicillin-streptomycin, and 0.4 mg/ml G418 agent (Cat# A1720, Sigma-Aldrich) at 37° C. in 5% CO2.
BHK-D2-Fluc-SGR-Neo-1 cells (replicons) were seeded in 96-well plates at 3,000 cells/well overnight.
To assess propofol's inhibitory activity on DENV infection, we next used BHK-21-SGR cells, a cellular replicon-based reporter assay, to examine propofol's translational targets.

[4] = test system: TNF-α; details: cecal ligation and puncture-administrated rat liver; cited from earlier work
[5] = test system: TNF-α; details: RAW 264.7 cells, propofol 10 or 25 μg/ml, DENV2 MOI=10, 24 h
Experimental: (§1) RAW 264.7 cells were pretreated without or with propofol (10 or 25 μg/ml) followed by infection with DENV2 (MOI=10) for 24 h. […] Quantitative data are presented as the mean±SD of the experiments (n=3). *p<0.05; ***p<0.001.
According to the manufacturer's instruction, samples were harvested, and the concentration of mouse TNFα was determined using ELISA kit (Cat#88-7324-88, eBioscience).
(§2) In this study, RAW 264.7 cells were pretreated with or without propofol (10 or 25 μg/ml) followed by infection with DENV for 24 h.

[6] = test system: TNF-α; details: CoCl2-treated hypoxic BV2 microglia; cited from earlier work
[7] = test system: DENV NS1; details: BHK-21 cells pretreated 1 h, DENV2 MOI=1, 24 h post-infection
Experimental: (§3) Cells were collected and extracted with lysis buffer containing a protease inhibitor cocktail (Sigma-Aldrich). The processed proteins were separated by 10% SDS polyacrylamide gel electrophoresis followed by transfer to a polyvinylidene difluoride (PVDF) membrane (Millipore). Then, the PVDF membrane was blocked with 5% nonfat milk in 0.05% Tween-20-containing Tris-buffer-based saline (TBS-T) at room temperature for 1 h. Next, the membrane was washed three times with TBS-T buffer and immunohybridized with the indicated primary antibodies at 4° C. overnight. Then, the membrane was washed with TBS-T buffer three times, followed by incubation with the indicated HRP-conjugated secondary antibodies at room temperature for 1 h. The antibody-protein complexes on the PVDF membrane were detected using an ECL Western blot detection kit (PerkinElmer). The signals of the identified proteins were captured with a film exposure system.

[8] = test system: DENV2; details: BHK-21 cells pretreated 1 h, DENV2 MOI=1, 24 h; doses of 5, 10, 25 and 50 μg/ml
Experimental: Baby hamster kidney (BHK)-21 fibroblasts (ATCC, CCL10) were maintained in Dulbecco's modified Eagle's medium (DMEM; Thermo Fisher Scientific) containing 10% heat-inactivated fetal bovine serum (FBS, Biological Industries) and 1% penicillin-streptomycin (Thermo Fisher Scientific) at 37° C. in 5% CO2. […] The Aedes albopictus clone mosquito C6/36 cells (ATCC, CRL1660) were maintained in Minimum Essential Medium (MEM; Thermo Fisher Scientific) containing 10% heat-inactivated FBS, 1% penicillin-streptomycin (Thermo Fisher Scientific), 1% sodium pyruvate (Cat#11360-070, Thermo Fisher Scientific), 1% 4-(2-hydroxyethyl) piperazineethanesulfonic acid (HEPES; Cat#15630-080, Thermo Fisher Scientific) and 1% nonessential amino acids (NEAA; Cat#11140-035, Thermo Fisher Scientific) at 28° C. in 5% CO2. Dengue virus serotype 2 (DENV2, strain PL046) was obtained from Center Disease Control in Taiwan and propagated in a C6/36 cell monolayer at a multiplicity of infection (MOI) of 0.01. After incubation (28° C. in 5% CO2) for 5 days, the viral supernatants were collected and filtered with a 0.22 μm filter and then stored at −80° C. until use. Viral titers were determined by plaque assay using BHK-21 cells.
BHK-21 cells were grown in a monolayer in a 12-well plate at 7×10^4 cells/well. […]

[9] = test system: phospho-STAT1 and STAT1; details: RAW 264.7 cells, propofol 10 or 25 μg/ml, DENV2 MOI=10, 24 h
Experimental: as §1, §3, §2

[10] = test system: BHK-21 cells; details: propofol 1 to 50 μg/ml, 24 h
Experimental: Quantitative data are presented as the mean±SD of at least three independent experiments (n=3). ***p<0.001. ns, not significant.
According to the manufacturer's instructions, cell cytotoxicity was assessed using Cytotoxicity Detection Kit assays (Roche Diagnostics, Lewes, UK).

SMILES	viral dsRNA expression (immunostaining, MFI) [1]	endosomal acidification (acridine orange staining) [2]	luciferase activity of replicons (viral protein translation) [3]	gene and cytokine productions of TNF-α [4]	mouse TNF-α production (ELISA) [5]	gene and cytokine productions of TNF-α [6]	viral NS1 protein expression (western blot) [7]	DENV virion release (viral titer, plaque assay) [8]	protein expressions of phospho-STAT1 and STAT1 (western blot) [9]	cytotoxicity (LDH assay) [10]
CO/C1=C\C(C)=C\[C@@H](C)[C@@H](O)[C@@H](C)C/C(C)=C/C=C/[C@H](OC)[C@@H]([C@@H](C)[C@@H](O)[C@H](C)[C@@]2(O)C[C@@H](O)[C@H](C)[C@@H](C(C)C)O2)OC1=O [Baf A1, bafilomycin A1]	reduced dsRNA expression	endosome acidification was blocked	–	–	–	–	–	–	–	–
CC(C)c1cccc(C(C)C)c1O [propofol, 2,6-diisopropylphenol]	does not affect blocking DENV viral dsRNA replication	does not affect endosomal acidification	no remarkable difference	reduces both the gene and cytokine productions of TNF-α	reduced the cytokine levels in a dose-dependent manner	reduces both the gene and cytokine productions of TNF-α	decreased in a dose-dependent manner	significantly (p<0.001) reduced DENV virion release	inhibited by propofol treatment	did not cause cytotoxicity
